US20120027687A1, “FATTY ACID PROTEIN KINASE C ACTIVATORS AND ANTICOAGULANT FOR THE TREATMENT OF STROKE” (priority 2010, published 2012)

Tests used:
PKCε [1] = molecular target: T1, PKCε (Homo sapiens, UniProt Q02156); assay: PKC assay with purified PKCε; assay type: biochemical
T1 construct: purchased Calbiochem
T1 sequence (Q02156 1-737): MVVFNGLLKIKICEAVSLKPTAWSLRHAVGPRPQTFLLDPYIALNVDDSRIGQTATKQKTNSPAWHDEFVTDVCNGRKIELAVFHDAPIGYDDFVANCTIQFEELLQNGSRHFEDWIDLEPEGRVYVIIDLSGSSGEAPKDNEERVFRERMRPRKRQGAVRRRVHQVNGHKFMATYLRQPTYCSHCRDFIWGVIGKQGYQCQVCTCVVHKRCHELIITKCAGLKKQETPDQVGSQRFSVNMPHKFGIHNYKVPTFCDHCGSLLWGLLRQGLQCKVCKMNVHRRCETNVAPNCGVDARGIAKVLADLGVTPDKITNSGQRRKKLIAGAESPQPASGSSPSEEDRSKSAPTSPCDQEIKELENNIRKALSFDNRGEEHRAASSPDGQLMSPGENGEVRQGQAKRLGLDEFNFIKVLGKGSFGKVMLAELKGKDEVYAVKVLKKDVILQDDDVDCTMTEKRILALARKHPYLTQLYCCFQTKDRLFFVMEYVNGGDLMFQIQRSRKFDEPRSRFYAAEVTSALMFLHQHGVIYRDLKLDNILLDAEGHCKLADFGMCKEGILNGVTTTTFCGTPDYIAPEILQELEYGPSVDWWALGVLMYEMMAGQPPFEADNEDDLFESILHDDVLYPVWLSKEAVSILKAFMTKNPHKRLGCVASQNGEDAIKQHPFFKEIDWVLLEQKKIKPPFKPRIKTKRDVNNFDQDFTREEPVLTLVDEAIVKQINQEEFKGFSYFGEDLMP
Protocol: PKC assay. […] 0.5 micro Ci[^γ32P]ATP was added. […] The reaction was stopped by spotting the reaction mixtures on 1×2 cm strips of cellulose phosphate paper (Whatman P81) and immediately washing twice for 1 hr in 0.5% H3PO4. The cellulose phosphate strips were counted in a scintillation counter. In some experiments, phosphatidylserine, diacylglycerol, and/or calcium were removed. […]
(§1) To determine their PKC isozyme specificity, fatty acid derivatives were preincubated with purified PKC for five minutes and the PKC activity was measured radiometrically.

PKCδ = molecular target: T2, PKCδ (Homo sapiens, UniProt Q05655); assay: PKC assay with purified PKCδ; assay type: biochemical; conditions: about 1-100 μM, data not shown
T2 construct: purchased Calbiochem
T2 sequence (Q05655 whole entry): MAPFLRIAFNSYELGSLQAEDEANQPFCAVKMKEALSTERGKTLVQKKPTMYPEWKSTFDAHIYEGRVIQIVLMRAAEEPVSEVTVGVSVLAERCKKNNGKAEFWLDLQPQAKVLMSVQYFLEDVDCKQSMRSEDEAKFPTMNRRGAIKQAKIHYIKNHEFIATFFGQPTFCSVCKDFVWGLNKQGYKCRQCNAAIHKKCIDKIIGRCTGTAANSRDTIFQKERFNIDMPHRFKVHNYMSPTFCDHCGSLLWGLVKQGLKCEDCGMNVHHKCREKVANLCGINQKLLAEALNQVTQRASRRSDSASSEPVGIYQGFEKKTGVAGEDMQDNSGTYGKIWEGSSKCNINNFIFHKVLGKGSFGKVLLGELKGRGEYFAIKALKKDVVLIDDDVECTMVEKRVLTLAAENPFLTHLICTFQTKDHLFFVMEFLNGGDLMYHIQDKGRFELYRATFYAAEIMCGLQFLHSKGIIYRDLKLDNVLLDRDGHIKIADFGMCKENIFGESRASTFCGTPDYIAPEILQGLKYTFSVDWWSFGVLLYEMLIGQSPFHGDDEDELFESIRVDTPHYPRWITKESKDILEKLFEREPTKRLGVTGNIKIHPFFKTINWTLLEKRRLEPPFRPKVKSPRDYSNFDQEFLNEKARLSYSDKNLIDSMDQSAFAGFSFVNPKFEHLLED
Protocol: (§2) Protein kinase C assay. Rat hippocampal cells were cultured and scraped in 0.2 ml homogenization buffer (20 mM Tris-HCl, pH 7.4, 50 mM NaF, 1 μg/ml leupeptin, and 0.1 mM PMSF) and homogenized by sonication a Marsonix microprobe sonicator (5 sec, 10W). To measure PKC, 10 μl of cell homogenate or purified PKC isozyme (purchased from Calbiochem) was incubated for 15 min at 37° C. in the presence of 10 μM histones, 4.89 mM CaCl2, 1.2 μg/μl phosphatidyl-L-serine, 0.18 μg/μl 1,2-dioctanoyl-sn-glycerol, 10 mM MgCl2, 20 mM HEPES (pH 7.4), 0.8 mM EDTA, 4 mM EGTA, 4% glycerol, 8 μg/ml aprotinin, 8 μg/ml leupeptin, and 2 mM benzamidine. 0.5 Ci [^γ32P]ATP was added and ^32P-phosphoprotein formation was measured by adsorption onto phosphocellulose as described previously. Nelson and Alkon, J. Neurochemistry (1995), vol. 65, pp. 2350-2357. For measurements of activation by BR-101 (DCP-LA) and similar compounds. PKC activity was measured in the absence of diacylglycerol and phosphatidylserine and PKC δ, ε, η, and μ were measured in the absence of added EGTA and CaCl2, as described by Kanno et al. (J. Lipid Res. 2006, vol. 47, pp. 1146-1150). […]
as §1

other PKC isoforms = assay: PKC isozyme specificity, other isoforms; assay type: biochemical; conditions: at 10 μM, data not shown
Protocol: as §2, §1

Aβ = Aβ production in N2a neuroblastoma cells transfected with human APPSwe/PSID; assay type: cell-based, mouse; conditions: 24 hours
Protocol: Cell culture. Rat hippocampal H19-7/IGF-IR cells (ATCC, Manassas, Va.) were plated onto poly-L-lysine coated plates and grown at 35° C. in DMEM/10% FCS for several days until about 50% coverage was obtained. The cells were then induced to differentiate into a neuronal phenotype by replacing the medium with 5 ml N2 medium containing 10 ng/ml basic fibroblast growth factor at 39° C. and grown in T-75 flasks at 37° C. Human SH-SY5Y neuroblastoma cells (ATCC) were cultured in 45% F12K/45% MEM/10% FCS. Mouse N2A neuroblastoma cells were cultured in DMEM/10% FCS without glutamine. Rat hippocampal neurons from 18-day-old embryonic Sprague Dawley rat brains were plated on 12- or 96-well plates coated with poly-D-lysine (Sigma-Aldrich, St. Louis, Mo.) in B-27 neurobasal medium containing 0.5 mM glutamine and 25 μM glutamate (Invitrogen, Carlsbad, Calif.) and cultured for three days in the medium without glutamate. The neuronal cells were grown under 5% CO2 in an incubator maintained at 37° C. for 14 days.
Aβ Measurement and Cell Viability Assay. Aβ was measured using an Aβ 1-42 human fluorimetric ELISA kit (Invitrogen) according to the manufacturer's instructions. Results were measured in a Biotek Synergy HT microplate reader. AlamarBlue and CyQuant NF (Invitrogen) according to the manufacturer's instructions.
To measure the effects of PKCε activation on Aβ production, mouse neuro2a (N2a) neuroblastoma cells transfected with human APPSwe/PSID were used, which produce large quantities of Aβ. Petanceska et al., J. Neurochem. (1996), vol. 74, pp. 1878-1884. […] With bryostatin, which activates PKC by binding to the diacylglycerol-binding site, the inhibition was biphasic with concentrations of 20 nM or higher producing no net effect. This may be explained by the ability of this class of PKC activators to downregulate PKC when used at high concentrations.

PKCε [2] = molecular target: T1, PKCε; conditions: cited from earlier work

With `CCCCCC1CC1CC1CC1CCCCCCCC(=O)O` (centres unmarked) [BR-101, 2-[(2-pentylcyclopropyl)methyl]cyclopropaneoctanoic acid] as the compound, how does the “activation of PKCε” value (PKCε [1]; 10 nM, lowest concentration tested) read?
The value was 2.75 fold.

What about the “activation of PKCε” value (PKCε [1]; at 10 μM) of the same compound?
Its value is “effective activator”.

What about the “effect on PKCδ at higher concentrations” value (PKCδ) of the same compound?
The value was “partially inhibited”.

And the “effects on the other PKC isoforms” value (other PKC isoforms)?
The value was “relatively small effects”.

And the “levels of intracellular Aβ” value (Aβ; various concentrations)?
Its value is “markedly reduced”.

What about the “levels of secreted Aβ” value (Aβ; various concentrations) of the same compound?
Its value is “markedly reduced”.

And the “concentration dependence of Aβ inhibition” value (Aβ; fatty acid derivatives up to 10 μM to 100 μM)?
The value was “monotonically increasing inhibition”.

And the “concentration of maximal effect on PKCε” value (PKCε [2])?
The value was 100 nM.
